Laboratory results: ChEMBL document CHEMBL4411299, “A class of novel tubulin polymerization inhibitors exert effective anti-tumor activity via mitotic catastrophe” (Eur J Med Chem, 2019)
Calls of active or inactive are those of the source. The rule behind the calls is not given here.

Legend:
[1] = Apparent volume of distribution in male Sprague-Dawley rat at 1.5 mg/kg, iv administered as single dose by LC-MS/MS analysis; assay type: ADME, organism-based; conditions: in vivo, read-out: Vd(app)
[2] = Half life in female Sprague-Dawley rat at 1.5 mg/kg, iv administered as single dose by LC-MS/MS analysis; assay type: ADME, organism-based; conditions: in vivo
HeLa [3] = assay: Induction of apoptosis in human HeLa cells assessed as necrotic cells at 0.1 uM after 24 hrs by Annexin V-FITC/propidium iodide staining-based flow cytometric analysis (reference value: 0.05%); assay type: functional
[4] = Stability in human liver microsomes assessed as parent compound remaining at 5 uM after 2 hrs in presence of NADPH regenerating system by LC-MS/MS analysis; assay type: ADME, Microsome
Tubulin = Tubulin (Sus scrofa, UniProt P02554+P02550); assay: (§1) Inhibition of porcine brain tubulin polymerization
Tubulin (Sus scrofa) = Tubulin (Sus scrofa) (UniProt P02554+P02550); assay: as §1
Sequence of Tubulin (Sus scrofa) (P02550 whole entry, looked up): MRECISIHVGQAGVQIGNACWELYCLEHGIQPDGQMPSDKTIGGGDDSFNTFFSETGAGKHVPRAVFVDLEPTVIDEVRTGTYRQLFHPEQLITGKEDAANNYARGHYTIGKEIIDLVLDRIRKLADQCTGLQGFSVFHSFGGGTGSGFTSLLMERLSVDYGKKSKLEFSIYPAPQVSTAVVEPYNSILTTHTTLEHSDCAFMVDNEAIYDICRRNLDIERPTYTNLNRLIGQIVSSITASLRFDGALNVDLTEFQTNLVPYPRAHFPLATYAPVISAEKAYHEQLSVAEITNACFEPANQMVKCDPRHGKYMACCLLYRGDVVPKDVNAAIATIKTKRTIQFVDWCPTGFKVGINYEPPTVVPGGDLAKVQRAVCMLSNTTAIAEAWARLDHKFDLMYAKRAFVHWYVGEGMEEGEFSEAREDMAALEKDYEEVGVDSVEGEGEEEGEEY
Sequence of Tubulin (Sus scrofa) (P02554 whole entry, looked up): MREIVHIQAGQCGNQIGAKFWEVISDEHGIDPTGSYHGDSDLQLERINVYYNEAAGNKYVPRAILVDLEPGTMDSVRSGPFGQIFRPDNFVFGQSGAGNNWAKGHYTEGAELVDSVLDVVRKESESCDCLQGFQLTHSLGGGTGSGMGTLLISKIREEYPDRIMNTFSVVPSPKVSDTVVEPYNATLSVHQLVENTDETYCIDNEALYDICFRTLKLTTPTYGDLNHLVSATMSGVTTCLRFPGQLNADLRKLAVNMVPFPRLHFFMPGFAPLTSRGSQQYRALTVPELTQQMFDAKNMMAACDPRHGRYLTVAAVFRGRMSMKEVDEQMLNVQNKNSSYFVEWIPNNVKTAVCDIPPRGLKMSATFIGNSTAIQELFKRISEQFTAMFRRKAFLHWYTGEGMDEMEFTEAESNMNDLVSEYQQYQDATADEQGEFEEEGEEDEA

[5] = AUC (0 to t) in male Sprague-Dawley rat at 1.5 mg/kg, iv administered as single dose by LC-MS/MS analysis; assay type: ADME, organism-based; conditions: in vivo
HeLa [6] = assay: Antiproliferative activity against human HeLa cells after 48 hrs by MTT assay; assay type: functional
HeLa [7] = assay: Induction of apoptosis in human HeLa cells assessed as early apoptotic cells at 0.1 uM after 24 hrs by Annexin V-FITC/propidium iodide staining-based flow cytometric analysis (reference value: 3.65%); assay type: functional
[8] = AUC (0 to t) in female Sprague-Dawley rat at 1.5 mg/kg, iv administered as single dose by LC-MS/MS analysis; assay type: ADME, organism-based; conditions: in vivo
[9] = Apparent volume of distribution in Sprague-Dawley rat at 1.5 mg/kg, iv administered as single dose by LC-MS/MS analysis; assay type: ADME, organism-based; conditions: in vivo, read-out: Vd(app)
[10] = Toxicity in mouse xenografted with human HeLa cells assessed as change in liver weight at 5 to 20 mg/kg, iv administered every other day up to 20 days; assay type: organism-based; conditions: in vivo, 480 h
[11] = Clearance in Sprague-Dawley rat at 1.5 mg/kg, iv administered as single dose by LC-MS/MS analysis; assay type: ADME, organism-based; conditions: in vivo
[12] = AUC (0 to infinity) in female Sprague-Dawley rat at 1.5 mg/kg, iv administered as single dose by LC-MS/MS analysis; assay type: ADME, organism-based; design: dose 1.5 mg/kg, time infinity, route intravenous; conditions: in vivo
[13] = Clearance in male Sprague-Dawley rat at 1.5 mg/kg, iv administered as single dose by LC-MS/MS analysis; assay type: ADME, organism-based; conditions: in vivo
HeLa [14] = assay: Antitumor activity against human HeLa cells xenografted in nude mouse assessed as tumor growth inhibition administered intravenously every other day up to 20 days; assay type: functional, cell-based
[15] = AUC (0 to infinity) in male Sprague-Dawley rat at 1.5 mg/kg, iv administered as single dose by LC-MS/MS analysis; assay type: ADME, organism-based; design: dose 1.5 mg/kg, time infinity, route intravenous; conditions: in vivo
[16] = Half life in male Sprague-Dawley rat at 1.5 mg/kg, iv administered as single dose by LC-MS/MS analysis; assay type: ADME, organism-based; conditions: in vivo
MDA-MB-231 = assay: Antiproliferative activity against human MDA-MB-231 cells after 48 hrs by MTT assay; assay type: functional; conditions: MDA-MB-231, 48 h
[17] = Half life in human liver microsomes at 5 uM in presence of NADPH regenerating system by LC-MS/MS analysis; assay type: ADME, Microsome
HeLa [18] = assay: Induction of ROS generation in human HeLa cells at 0.02 to 0.2 uM after 12 hrs by DCFH-DA staining-based flow cytometric analysis; assay type: functional, cell-based
HepG2 = assay: Antiproliferative activity against human HepG2 cells after 48 hrs by MTT assay; assay type: functional; conditions: HepG2, 48 h
[19] = MRT (0 to infinity) in female Sprague-Dawley rat at 1.5 mg/kg, iv administered as single dose by LC-MS/MS analysis; assay type: ADME, organism-based; conditions: in vivo
[20] = MRT (0 to t) in male Sprague-Dawley rat at 1.5 mg/kg, iv administered as single dose by LC-MS/MS analysis; assay type: ADME, organism-based; conditions: in vivo
HT-29 = assay: Antiproliferative activity against human HT-29 cells after 48 hrs by MTT assay; assay type: functional; conditions: HT-29, 48 h
[21] = MRT (0 to infinity) in male Sprague-Dawley rat at 1.5 mg/kg, iv administered as single dose by LC-MS/MS analysis; assay type: ADME, organism-based; conditions: in vivo

- Vd [1]: 3.82 L/kg
- half-life [2]: 55.8 min
- Stability [4]: 31.1%
- IC50 (Tubulin): 1.49 µM
- inhibition (Tubulin (Sus scrofa)): Dose-dependent effect
- AUC(0-t) [5]: 475 ng·h/mL
- GI50 (HeLa [6]): 50 nM
- AUC(0-t) [8]: 319 ng·h/mL
- Vd [9]: 5.03 L/kg
- clearance [11]: 65.3 mL/min/kg
- AUC(0-inf) [12]: 336 ng·h/mL
- clearance [13]: 51 mL/min/kg
- AUC(0-inf) [15]: 491 ng·h/mL
- half-life [16]: 52.2 min
- GI50 (MDA-MB-231): 140 nM
- t1/2 [17]: 170.73 min
- GI50 (HepG2): 980 nM
- MRT inf [19]: 1.18 h
- MRT last [20]: 51 min
- GI50 (HT-29): 100 nM
- MRT inf [21]: 1 h
SMILES: COC(=O)N1N=C(c2cccc(C)c2)CC1c1cc(OC)c(OC)c(OC)c1 (stereo unspecified)
- Activity (HeLa [3]): 0.829%
- Activity (HeLa [7]): 17.3%
- Activity [10]: Non-Toxic
- TGI (HeLa [14]): Dose-dependent effect
- Activity (HeLa [18]): Active
